One compound from US20150031628A1, “METHODS AND FORMULATIONS FOR CONVERTING INTRAVENOUS AND INJECTABLE DRUGS INTO ORAL DOSAGE FORMS” (ZOMANEX, LLC, priority 2007, published 2015) can be followed below.

A short description of data set [1]: in vivo. The note with it: female, beagle, dog, plasma, po, 20 mg.
Method: (§1) To these ends, pharmacokinetic studies were performed in five naïve, female beagle dogs with each drug dosed in a formulation system using a crossover design, with a one week wash out period between doses. […] Following a 16-hour fast, the animals were fed a small amount (approximately ¼ can) of Hill/s Science Diet A/D and thirty minutes later each animal was orally dosed with one of the formulations of the appropriate test article. Blood samples were drawn 0.5, 1.0, 1.5, 3.0, 4.5, 8.0, and 24 hours after dosing.
The liquid was then dosed to the animal with a syringe. Water was then added to the syringe and the washing was administered to the dog.
After dosing with each formulation, all the blood samples were collected in a sodium heparin anticoagulant tube, processed to plasma and frozen at −80° C. Plasma Paclitaxel concentration at each time point for each of the five dogs was determined by high throughput liquid chromatographic-tandem mass spectrometric quantification at Bioanalytical Systems (McMinnville, Oreg.). […] To quantitate the absorption changes, the area under the curve (AUC0→∞) was calculated for each formulation system and the results are shown in the Table below.
A short description of data set [2]: in vivo. Conditions: female, beagle, dog, plasma, po, 20 mg. This is another data set of the same source.
Method: as §1
Solid Preparation—Paclitaxel. Solid Paclitaxel (300 mg), soy sterols (300 mg) and lysolecithin (900 mg) were added to a 30 mL glass tube and chloroform (3.0 ml) was added. After the solids were dissolved with gentle heating in a 60° C. water bath, the solvent was removed under a stream of nitrogen. The mass was then pumped on under vacuum to remove residual solvent. Addition of water (15 mL) softened the solid mass and the mixture was then sonicated in an ice bath for two minutes on 40% power, followed by two minutes sonication on 50% power and then two minutes sonication on 60% power. […]
Absorption Experiment With Solid Formulations. After dosing with each formulation, all the blood samples were processed and analyzed as described for the liquid formulations.

With `CC(=O)O[C@H]1C(=O)[C@@]2(C)[C@H]([C@H](OC(=O)c3ccccc3)[C@]3(O)C[C@H](OC(=O)[C@H](O)[C@@H](NC(=O)c4ccccc4)c4ccccc4)C(C)=C1C3(C)C)[C@]1(OC(C)=O)CO[C@@H]1C[C@@H]2O` [Unformulated Paclitaxel, Paclitaxel], the area under the curve AUC(0-inf) in data set [1] and in data set [2] was 28.9 ± 7.1 ng·h/mL each time.

A word on the AUC(0-inf): it is total exposure, with the tail of the curve extrapolated.
